The target in the assay is T1, human renal renin (Homo sapiens, UniProt P00797).
T1 construct: human renal renin, free from acid proteolytic activity; from tissue
T1 sequence (P00797 67-406): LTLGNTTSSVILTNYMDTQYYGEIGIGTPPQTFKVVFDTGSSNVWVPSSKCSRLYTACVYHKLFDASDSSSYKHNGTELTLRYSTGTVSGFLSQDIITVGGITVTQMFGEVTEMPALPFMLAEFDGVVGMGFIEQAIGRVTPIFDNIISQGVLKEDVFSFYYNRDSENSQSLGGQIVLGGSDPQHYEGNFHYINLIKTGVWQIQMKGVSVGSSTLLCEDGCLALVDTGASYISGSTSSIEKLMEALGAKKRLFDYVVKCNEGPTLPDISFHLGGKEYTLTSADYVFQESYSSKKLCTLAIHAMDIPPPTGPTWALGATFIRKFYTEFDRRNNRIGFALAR
Briefly: Inhibition of human renal renin in vitro (angiotensin I formed measured by radioimmunoassay). The assay is classed as biochemical. The following applies: human renal renin free from acid proteolytic activity, renin substrate human angiotensinogen, 37 degrees C, pH 6.0; read-out: IC50 (molar concentration required to cause 50% inhibition). As for the experimental part:
The compounds of the invention are also useful for treating congestive heart failure in a mammal. […] At the end of the incubation, the amount of angiotensin I formed is measured by radioimmunoassay and the molar concentration required to cause 50% inhibition, expressed as the IC50, is calculated.
As to `CCCC[C@H](NC(=O)C(Cc1ccccc1)CS(=O)(=O)C1CN(C)C1)C(=O)N[C@@H](CC1CCCCC1)[C@@H](O)[C@@H](O)CC(C)C` (mixture of isomers) [Example 110, (2RS)-2-Benzyl-3-(1-methylazetidin-3-ylsulfonyl)propionyl-Nle Amide of (2S,3R,4S)-2-Amino-1-cyclohexyl-3,4-dihydroxy-6-methylheptane], the IC50 amounted to 2.3 nM.
The result for `CC(C)C[C@H](O)[C@H](O)[C@H](CC1CCCCC1)NC(=O)[C@H](Cc1cscn1)NC(=O)[C@@H](CC(=O)N1CCN(CC(F)(F)F)CC1)Cc1ccccc1` [Example 94, (2R)-2-Benzyl-3-(4-trifluoroethylpiperazin-1-ylcarbonyl)propionyl-L-(4-thiazolyl)Ala Amide of (2S,3R,4S)-2-Amino-1-cyclohexyl-3,4-dihydroxy-6-methylheptane] reads 0.57 nM; that for `CC(C)C[C@H](O)[C@H](O)[C@H](CC1CCCCC1)NC(=O)[C@H](Cc1cscn1)NC(=O)[C@@H](CC(=O)CN1CCOCC1)Cc1ccccc1` [Example 95, (2R)-2-Benzyl-5-morpholin-4-yl-4-oxopentanoyl-L-(4-thiazolyl)Ala Amide of (2S,3R,4S)-2-Amino-1-cyclohexyl-3,4-dihydroxy-6-methylheptane], 0.56 nM.
The result for `CC(C)C[C@H](O)[C@H](O)[C@H](CC1CCCCC1)NC(=O)[C@H](Cc1cscn1)NC(=O)[C@@H](CC(=O)N(C)CCN1CCOCC1)Cc1ccccc1` [Example 96, (2R)-2-Benzyl-3-[(2-morpholin-4-ylethyl)methylaminocarbonyl]propionyl-L-(4-thiazolyl)Ala Amide of (2S,3R,4S)-2-Amino-1-cyclohexyl-3,4-dihydroxy-6-methylheptane] reads 0.4 nM; that for `CC(C)C[C@H](O)[C@H](O)[C@H](CC1CCCCC1)NC(=O)[C@H](Cc1cscn1)NC(=O)[C@H](Cc1ccccc1)Cc1cscn1` [Example 97, (2R)-2-Benzyl-3-thiazol-4-ylpropionyl-L-(4-thiazolyl)Ala Amide of (2S,3R,4S)-2-Amino-1-cyclohexyl-3,4-dihydroxy-6-methylheptane], 0.68 nM.
With `CC(C)C[C@H](O)[C@H](O)[C@H](CC1CCCCC1)NC(=O)[C@H](Cc1cscn1)NC(=O)[C@@H](CC(=O)CS(=O)(=O)C(C)(C)C)Cc1ccccc1` [Example 98, (2R)-2-Benzyl-5-tert-butylsulfonyl-4-oxopentanoyl-L-(4-thiazolyl)Ala Amide of (2S,3R,4S)-2-Amino-1-cyclohexyl-3,4-dihydroxy-6-methylheptane], the IC50 was 0.45 nM.
The result for `CC(C)C[C@H](O)[C@H](O)[C@H](CC1CCCCC1)NC(=O)[C@H](Cc1cscn1)NC(=O)[C@@H](CC(=O)C[S+]([O-])C(C)(C)C)Cc1ccccc1` (stereo partly drawn) [Example 99, (2R)-2-Benzyl-5-tert-butylsulfinyl-4-oxopentanoyl-L-(4-thiazolyl)Ala Amide of (2S,3R,4S)-2-Amino-1-cyclohexyl-3,4-dihydroxy-6-methylheptane] reads 0.91 nM; that for `CON(C)C[C@@H](Cc1ccccc1)C(=O)N[C@@H](Cc1cscn1)C(=O)N[C@@H](CC1CCCCC1)[C@@H](O)[C@@H](O)CC(C)C` [Example 100, (2R)-2-Benzyl-3-(N-methoxy-N-methylamino)propionyl-L-(4-thiazolyl)Ala Amide of (2S,3R,4S)-2-Amino-1-cyclohexyl-3,4-dihydroxy-6-methylheptane], 1.8 nM.
The result for `CC(C)C[C@H](O)[C@H](O)[C@H](CC1CCCCC1)NC(=O)[C@H](Cc1cscn1)NC(=O)[C@H](Cc1ccccc1)Cn1cccn1` [Example 101, (2R)-2-Benzyl-3-pyrazol-1-ylpropionyl-L-(4-thiazolyl)Ala Amide of (2S,3R,4S)-2-Amino-1-cyclohexyl-3,4-dihydroxy-6-methylheptane] reads 0.67 nM; that for `CC(C)C[C@H](O)[C@H](O)[C@H](CC1CCCCC1)NC(=O)[C@H](Cc1cscn1)NC(=O)[C@H](Cc1ccccc1)Cn1ccnc1` [Example 102, (2R)-2-Benzyl-3-imidazol-1-ylpropionyl-L-(4-thiazolyl)Ala Amide of (2S,3R,4S)-2-Amino-1-cyclohexyl-3,4-dihydroxy-6-methylheptane], 0.69 nM.
The result for `CN=c1scc(C[C@@H](Cc2ccccc2)C(=O)N[C@@H](Cc2cscn2)C(=O)N[C@@H](CC2CCCCC2)[C@@H](O)[C@@H](O)CC(C)C)n1C` [Example 103, (2R)-2-Benzyl-3-(2-methylimino-3-methyl-2,3-dihydrothiazol-4-yl)propionyl-L-(4-thiazolyl) Ala Amide of (2S,3R,4S)-2-Amino-1-cyclohexyl-3,4-dihydroxy-6-methylheptane] reads 0.43 nM.
With `CC(C)C[C@H](O)[C@H](O)[C@H](CC1CCCCC1)NC(=O)[C@H](Cc1cscn1)NC(=O)[C@H](Cc1ccccc1)Cc1csc(N(C)C)n1` [Example 104, (2R)-2-Benzyl-3-(2-dimethylaminothiazol-4-yl)propionyl-L-(4-thiazolyl)Ala Amide of (2S,3R,4S)-2-Amino-1-cyclohexyl-3,4-dihydroxy-6-methylheptane], the IC50 amounted to 0.43 nM.
The result for `CC(C)C[C@H](O)[C@H](O)[C@H](CC1CCCCC1)NC(=O)[C@H](Cc1cscn1)NC(=O)[C@@H](CC1=CSC2=NCCN12)Cc1ccccc1` [Example 105, (2R)-2-Benzyl-3-(5,6-dihydroimidazo[2,1-b]thiazol-3-yl)propionyl-L-(4-thiazolyl)Ala Amide of (2S,3R,4S)-2-Amino-1-cyclohexyl-3,4-dihydroxy-6-methylheptane] reads 1.1 nM; that for `CC(C)C[C@H](O)[C@H](O)[C@H](CC1CCCCC1)NC(=O)[C@H](Cc1cccs1)NC(=O)[C@@H](CC(=O)N(C)CCn1cccn1)Cc1ccccc1` [Example 106, (2R)-2-Benzyl-3-[(2-pyrazol-1-ylethyl)methylaminocarbonyl]propionyl-L-(2-thienyl)Ala Amide of (2S,3R,4S)-2-Amino-1-cyclohexyl-3,4-dihydroxy-6-methylheptane], 0.38 nM; that for `CC(C)C[C@H](O)[C@H](O)[C@H](CC1CCCCC1)NC(=O)[C@H](Cn1ccnc1)NC(=O)[C@@H](CC(=O)N(C)CCn1cccn1)Cc1ccccc1` [Example 107, (2R)-2-Benzyl-3-[(2-pyrazol-1-ylethyl)methylaminocarbonyl]propionyl-L-(1-imidazolyl)Ala Amide of (2S,3R,4S)-2-Amino-1-cyclohexyl-3,4-dihydroxy-6-methylheptane], 0.89 nM.
In the case of `CC(C)C[C@H](O)[C@H](O)[C@H](CC1CCCCC1)NC(=O)[C@H](Cc1cscn1)NC(=O)[C@@H](Cc1ccccc1)CS(=O)(=O)C1CN(C)C1` [Example 108, (2R)-2-Benzyl-3-(1-methylazetidin-3-ylsulfonyl)propionyl-L-(4-thiazolyl)AlaAmide of (2S,3R,4S)-2-Amino-1-cyclohexyl-3,4-dihydroxy-6-methylheptane] it was 0.44 nM; in that of `CC(C)C[C@H](O)[C@H](O)[C@H](CC1CCCCC1)NC(=O)[C@H](Cc1cscn1)NC(=O)[C@@H](Cc1ccccc1)CS(=O)(=O)N(C)CCc1ccccn1` [Example 109, (2R)-2-Benzyl-3-[[2-pyridin-2-ylethyl(methyl)amino]sulfonyl]propionyl-L-(4-thiazolyl)Ala Amide of (2S,3R,4S)-2-Amino-1-cyclohexyl-3,4-dihydroxy-6-methylheptane], 0.25 nM.

For the origin of these results see patent publication US5063208A, “Peptidyl aminodiol renin inhibitors” (Abbott Laboratories, priority 1990, dated 1991).
